pIC50, pKi: −log10 of the molar value.
How the values were obtained:
[1] = target: T1, Alpha-2A adrenergic receptor (Homo sapiens, UniProt P08913); type: cell membranes, Sf9, Membrane; conditions: for pIC50: read-out: IC50; for pKi: read-out: Ki; as to all read-outs here: in other assays of this panel Not Active means under 50% inhibition at 10 µM
T1 sequence (P08913 whole entry): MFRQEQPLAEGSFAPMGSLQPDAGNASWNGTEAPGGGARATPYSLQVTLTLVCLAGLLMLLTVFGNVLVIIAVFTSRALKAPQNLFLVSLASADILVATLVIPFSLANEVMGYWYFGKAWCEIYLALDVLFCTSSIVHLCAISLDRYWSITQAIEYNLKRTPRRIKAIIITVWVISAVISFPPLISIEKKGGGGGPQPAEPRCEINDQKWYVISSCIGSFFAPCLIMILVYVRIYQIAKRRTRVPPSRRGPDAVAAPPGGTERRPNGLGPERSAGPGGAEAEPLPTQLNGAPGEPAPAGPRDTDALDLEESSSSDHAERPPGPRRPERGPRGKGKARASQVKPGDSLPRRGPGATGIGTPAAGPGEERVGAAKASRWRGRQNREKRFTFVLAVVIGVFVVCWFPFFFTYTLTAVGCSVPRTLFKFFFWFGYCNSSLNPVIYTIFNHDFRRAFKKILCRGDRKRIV

[2] = target: Estrogen receptor beta (Homo sapiens, UniProt Q92731); conditions: sf9; also: in other assays of this panel Not Active means under 50% inhibition at 10 µM
Sequence of Estrogen receptor beta (Q92731 whole entry): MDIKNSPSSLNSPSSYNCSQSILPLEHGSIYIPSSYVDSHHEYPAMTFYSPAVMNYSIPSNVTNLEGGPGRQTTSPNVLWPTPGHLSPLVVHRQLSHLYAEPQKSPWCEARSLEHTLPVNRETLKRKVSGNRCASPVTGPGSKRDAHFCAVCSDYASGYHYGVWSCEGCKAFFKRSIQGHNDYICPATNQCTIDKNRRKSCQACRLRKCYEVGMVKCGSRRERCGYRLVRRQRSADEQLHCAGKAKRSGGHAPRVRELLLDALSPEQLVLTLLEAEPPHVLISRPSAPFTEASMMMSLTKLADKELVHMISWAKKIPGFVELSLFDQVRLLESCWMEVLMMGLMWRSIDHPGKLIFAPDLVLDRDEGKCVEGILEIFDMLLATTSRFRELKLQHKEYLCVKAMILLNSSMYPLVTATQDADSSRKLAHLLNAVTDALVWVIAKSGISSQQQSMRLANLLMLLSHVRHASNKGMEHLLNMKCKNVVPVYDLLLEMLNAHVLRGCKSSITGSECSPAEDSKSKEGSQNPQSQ

[3] = target: Protein kinase C alpha type (Homo sapiens, UniProt P17252); type: cell-based; conditions: sf9;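 also: inhibition of PKCalpha kinase activity measured in an enzyme assay with histone as the phosphorylation substrate; in other assays of this panel Not Active means under 50% inhibition at 10 µM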
[4] = target: T2, Nitric oxide synthase, inducible (Mus musculus, UniProt P29477); parameters: species or system Escherichia coli;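 also: inhibition of iNOS enzyme activity measured with L-arginine as substrate; in other assays of this panel Not Active means under 50% inhibition at 10 µM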
T2 sequence (P29477 whole entry): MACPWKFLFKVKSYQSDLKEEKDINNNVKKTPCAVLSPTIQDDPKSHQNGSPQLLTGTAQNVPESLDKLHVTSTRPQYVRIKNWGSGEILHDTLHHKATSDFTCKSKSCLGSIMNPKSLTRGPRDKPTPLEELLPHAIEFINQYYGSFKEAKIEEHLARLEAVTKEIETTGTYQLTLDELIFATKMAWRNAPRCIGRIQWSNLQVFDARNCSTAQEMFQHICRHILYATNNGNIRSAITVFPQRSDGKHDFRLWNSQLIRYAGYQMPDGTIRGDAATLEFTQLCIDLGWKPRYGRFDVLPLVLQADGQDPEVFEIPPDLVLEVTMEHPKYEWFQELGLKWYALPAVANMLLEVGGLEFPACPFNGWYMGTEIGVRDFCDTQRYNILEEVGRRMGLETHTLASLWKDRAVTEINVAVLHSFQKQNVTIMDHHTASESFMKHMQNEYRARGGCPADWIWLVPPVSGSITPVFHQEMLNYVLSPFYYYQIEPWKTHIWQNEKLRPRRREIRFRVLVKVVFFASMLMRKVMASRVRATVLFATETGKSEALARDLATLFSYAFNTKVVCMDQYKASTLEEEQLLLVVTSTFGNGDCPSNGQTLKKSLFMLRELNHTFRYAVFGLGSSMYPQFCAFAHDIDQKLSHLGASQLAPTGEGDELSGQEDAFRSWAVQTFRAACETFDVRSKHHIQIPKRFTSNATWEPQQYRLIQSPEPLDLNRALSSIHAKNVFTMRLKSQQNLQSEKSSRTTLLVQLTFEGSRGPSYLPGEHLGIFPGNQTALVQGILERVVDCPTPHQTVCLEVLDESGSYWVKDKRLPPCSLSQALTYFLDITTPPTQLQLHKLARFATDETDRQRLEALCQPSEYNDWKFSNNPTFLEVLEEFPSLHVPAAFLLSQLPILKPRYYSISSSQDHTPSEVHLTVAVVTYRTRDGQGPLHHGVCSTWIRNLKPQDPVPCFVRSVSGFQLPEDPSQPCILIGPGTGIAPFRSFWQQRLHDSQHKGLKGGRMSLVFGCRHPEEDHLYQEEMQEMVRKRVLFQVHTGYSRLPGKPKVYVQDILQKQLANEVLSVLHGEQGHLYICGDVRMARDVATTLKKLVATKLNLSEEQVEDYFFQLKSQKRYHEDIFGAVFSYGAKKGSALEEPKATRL

[5] = target: Protein phosphatase 3 catalytic subunit alpha (Homo sapiens, UniProt Q08209); parameters: species or system Escherichia coli
[6] = target: Mitogen-activated protein kinase 14 (Homo sapiens, UniProt Q16539); parameters: species or system Escherichia coli
Sequence of Mitogen-activated protein kinase 14 (Q16539 whole entry): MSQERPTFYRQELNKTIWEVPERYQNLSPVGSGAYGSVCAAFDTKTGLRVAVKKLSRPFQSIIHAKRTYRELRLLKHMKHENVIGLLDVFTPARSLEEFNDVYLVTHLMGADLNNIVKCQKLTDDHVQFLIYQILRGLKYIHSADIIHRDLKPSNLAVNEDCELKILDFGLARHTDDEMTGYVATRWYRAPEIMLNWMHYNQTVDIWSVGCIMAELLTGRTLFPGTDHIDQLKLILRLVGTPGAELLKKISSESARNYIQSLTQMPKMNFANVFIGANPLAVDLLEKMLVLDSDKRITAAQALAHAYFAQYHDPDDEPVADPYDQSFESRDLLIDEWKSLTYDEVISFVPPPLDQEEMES

[7] = DRUGMATRIX: Glutamate, AMPA radioligand binding (ligand: [3H] AMPA); type: cell membranes, Rattus norvegicus, Wistar, Cerebral cortex, Membrane; conditions: Not Active = under 50% inhibition at 10 µM

| Compound | IC50 ([1]; sf9) | IC50 [2] | IC50 [3] | IC50 [4] | IC50 [5] | IC50 [6] | IC50 [7] | Ki [7] | pIC50 [1] | pKi [1] | pIC50 ([1]; sf9) | pKi ([1]; sf9) | Ki [2] | Ki [3] | Ki [4] | Ki [5] | Ki [6] | pIC50 ([6]; read-out: IC50) |
| --- | --- | --- | --- | --- | --- | --- | --- | --- | --- | --- | --- | --- | --- | --- | --- | --- | --- | --- |
| CN(CCOc1ccc(CC2SC(=O)NC2=O)cc1)c1ccccn1 (configuration not stated) [ROSIGLITAZONE] | Not Active | Not Active | Not Active | Not Active | Not Active | Not Active | Not Active | Not Active |  |  |  |  |  |  |  |  |  |  |
| Nc1ccc(S(=O)(=O)Nc2ncccn2)cc1 [SULFADIAZINE] | Not Active | Not Active | Not Active | Not Active | Not Active | Not Active | Not Active | Not Active |  |  |  |  |  |  |  |  |  |  |
| C#CCN(C)[C@H](C)Cc1ccccc1 [SELEGILINE] |  | Not Active | Not Active | Not Active | Not Active | Not Active | Not Active | Not Active | 5.75 | 6.17 |  |  |  |  |  |  |  |  |
| THIMEROSAL |  | Not Active | Not Active | Not Active | Not Active | Not Active | Not Active | Not Active |  |  | 6.27 | 6.70 | Not Active | Not Active | Not Active | Not Active | Not Active |  |
| CNS(=O)(=O)Cc1ccc2[nH]cc(CCN(C)C)c2c1 | Not Active | Not Active | Not Active | Not Active | Not Active | Not Active | Not Active | Not Active |  |  |  |  |  |  |  |  |  |  |
| C[C@]12CC[C@H]3[C@@H](CCC4=CC(=O)CC[C@@]43C)[C@@H]1CC[C@@H]2O [TESTOSTERONE] | Not Active | Not Active | Not Active | Not Active | Not Active | Not Active | Not Active | Not Active |  |  |  |  |  |  |  |  |  |  |
| C[C@@H]1C[C@H]2[C@@H]3CCC4=CC(=O)C=C[C@]4(C)C3=CC[C@]2(C)[C@H]1C(=O)CN1CCN(c2cc(N3CCCC3)nc(N3CCCC3)n2)CC1 [TIRILAZAD] | Not Active | Not Active | Not Active | Not Active | Not Active |  | Not Active | Not Active |  |  |  |  |  |  |  |  |  | 5.13 |
| NC[C@H]1O[C@H](O[C@H]2[C@H](O)[C@@H](O[C@H]3O[C@H](CO)[C@@H](O)[C@H](N)[C@H]3O)[C@H](N)C[C@@H]2N)[C@H](N)C[C@@H]1O [TOBRAMYCIN] | Not Active | Not Active | Not Active | Not Active | Not Active | Not Active | Not Active | Not Active |  |  |  |  |  |  |  |  |  |  |
| CO[C@H]1C[C@@H]2CC[C@@H](C)[C@@](O)(O2)C(=O)C(=O)N2CCCC[C@H]2C(=O)O[C@H]([C@H](C)C[C@@H]2CC[C@@H](O)[C@H](OC)C2)CC(=O)[C@H](C)/C=C(\C)[C@@H](O)[C@@H](OC)C(=O)[C@H](C)C[C@H](C)/C=C/C=C/C=C/1C [SIROLIMUS] | Not Active | Not Active | Not Active | Not Active | Not Active | Not Active | Not Active | Not Active |  |  |  |  |  |  |  |  |  |  |
| COc1ccc(CN2CCNCC2)c(OC)c1OC [TRIMETAZIDINE] | Not Active | Not Active | Not Active | Not Active | Not Active | Not Active | Not Active | Not Active |  |  |  |  |  |  |  |  |  |  |

From ChEMBL document CHEMBL1909046, “DrugMatrix in vitro pharmacology data”
